# Measurements taken from ChEMBL document CHEMBL3885881, “DrugMatrix”.
# Organism: Rattus norvegicus
# Assay: DrugMatrix - Regimen: Daily Repeat
# Assay type: toxicity, organism-based, Sprague-Dawley
# Parameters: regimen Daily Repeat, gender Male, age 6-8 weeks
# Conditions: in vivo, po, route oral GAVAGE, vehicle 100 % WATER; for BASOPHIL / EOSINOPHIL / ERYTHROCYTE COUNT / HEMATOCRIT / HEMOGLOBIN / LEUKOCYTE COUNT / LYMPHOCYTE / MEAN CORPUSCULAR HEMOGLOBIN / MEAN CORPUSCULAR HEMOGLOBIN CONCENTRATION / MEAN CORPUSCULAR VOLUME / MONOCYTE / NEUTROPHIL / PLATELET COUNT: tissue Blood; for ALANINE AMINOTRANSFERASE / ALBUMIN / ALKALINE PHOSPHATASE / ASPARTATE AMINOTRANSFERASE / BLOOD UREA NITROGEN / CHLORIDE / CHOLESTEROL / CREATINE PHOSPHOKINASE / CREATININE / GLUCOSE / PHOSPHORUS / POTASSIUM / SODIUM / TOTAL BILIRUBIN / TOTAL PROTEIN: tissue Plasma
# [1] = 0 mg/kg, 72 h, dose level Control, time 3 day
# [2] = 0 mg/kg, 120 h, dose level Control, time 5 day
# [3] = 100 mg/kg, 72 h, dose level Low, time 3 day
# [4] = 100 mg/kg, 120 h, dose level Low, time 5 day
# [5] = 1000 mg/kg, 72 h, dose level High, time 3 day
# [6] = 1000 mg/kg, 120 h, dose level High, time 5 day
smiles,measurement,setting,value
Oc1cccc(O)c1O [PYROGALLOL],BASOPHIL,[1],0%
same,EOSINOPHIL,[1],0.5%
same,ERYTHROCYTE COUNT,[1],5.8 x10E6/uL
same,HEMATOCRIT,[1],35.07%
same,HEMOGLOBIN,[1],14.12 G/DL
same,LEUKOCYTE COUNT,[1],13.7 x10E3/uL
same,LYMPHOCYTE,[1],82.33%
same,MEAN CORPUSCULAR HEMOGLOBIN,[1],24.38 pg
same,MEAN CORPUSCULAR HEMOGLOBIN CONCENTRATION,[1],40.28 G/DL
same,MEAN CORPUSCULAR VOLUME,[1],60.52 fL
same,MONOCYTE,[1],2.67%
same,NEUTROPHIL,[1],14.5%
same,PLATELET COUNT,[1],911.5 x10E3/uL
same,ALANINE AMINOTRANSFERASE,[1],36.83 u/L
same,ALBUMIN,[1],3.75 G/DL
same,ALKALINE PHOSPHATASE,[1],399.83 u/L
same,ASPARTATE AMINOTRANSFERASE,[1],66 u/L
same,BLOOD UREA NITROGEN,[1],14.67 mg/dL
same,CHLORIDE,[1],101.67 MEQ/L
same,CHOLESTEROL,[1],66.33 mg/dL
same,CREATINE PHOSPHOKINASE,[1],139.5 u/L
same,CREATININE,[1],0.92 mg/dL
same,GLUCOSE,[1],175 mg/dL
same,PHOSPHORUS,[1],11.42 mg/dL
same,POTASSIUM,[1],7.03 MEQ/L
same,SODIUM,[1],148.5 MEQ/L
same,TOTAL BILIRUBIN,[1],1.13 mg/dL
same,TOTAL PROTEIN,[1],6.87 G/DL
same,BASOPHIL,[2],0%
same,EOSINOPHIL,[2],0.2%
same,ERYTHROCYTE COUNT,[2],6.02 x10E6/uL
same,HEMATOCRIT,[2],36.48%
same,HEMOGLOBIN,[2],14.38 G/DL
same,LEUKOCYTE COUNT,[2],12.34 x10E3/uL
same,LYMPHOCYTE,[2],83%
same,MEAN CORPUSCULAR HEMOGLOBIN,[2],23.92 pg
same,MEAN CORPUSCULAR HEMOGLOBIN CONCENTRATION,[2],39.44 G/DL
same,MEAN CORPUSCULAR VOLUME,[2],60.66 fL
same,MONOCYTE,[2],3%
same,NEUTROPHIL,[2],13.8%
same,PLATELET COUNT,[2],1190.6 x10E3/uL
same,ALANINE AMINOTRANSFERASE,[2],43 u/L
same,ALBUMIN,[2],3.73 G/DL
same,ALKALINE PHOSPHATASE,[2],393 u/L
same,ASPARTATE AMINOTRANSFERASE,[2],62.33 u/L
same,BLOOD UREA NITROGEN,[2],16.33 mg/dL
same,CHLORIDE,[2],101.67 MEQ/L
same,CHOLESTEROL,[2],65.5 mg/dL
same,CREATINE PHOSPHOKINASE,[2],130.67 u/L
same,CREATININE,[2],0.58 mg/dL
same,GLUCOSE,[2],180.67 mg/dL
same,PHOSPHORUS,[2],11.28 mg/dL
same,POTASSIUM,[2],7.05 MEQ/L
same,SODIUM,[2],148.17 MEQ/L
same,TOTAL BILIRUBIN,[2],0.72 mg/dL
same,TOTAL PROTEIN,[2],6.83 G/DL
same,BASOPHIL,[3],0%
same,EOSINOPHIL,[3],0.5%
same,ERYTHROCYTE COUNT,[3],5.78 x10E6/uL
same,HEMATOCRIT,[3],35.75%
same,HEMOGLOBIN,[3],13.85 G/DL
same,LEUKOCYTE COUNT,[3],11.7 x10E3/uL
same,LYMPHOCYTE,[3],88%
same,MEAN CORPUSCULAR HEMOGLOBIN,[3],24.05 pg
same,MEAN CORPUSCULAR HEMOGLOBIN CONCENTRATION,[3],38.75 G/DL
same,MEAN CORPUSCULAR VOLUME,[3],61.95 fL
same,MONOCYTE,[3],1%
same,NEUTROPHIL,[3],10.5%
same,PLATELET COUNT,[3],1307.5 x10E3/uL
same,ALANINE AMINOTRANSFERASE,[3],36.33 u/L
same,ALBUMIN,[3],3.67 G/DL
same,ALKALINE PHOSPHATASE,[3],323 u/L
same,ASPARTATE AMINOTRANSFERASE,[3],59.33 u/L
same,BLOOD UREA NITROGEN,[3],13 mg/dL
same,CHLORIDE,[3],101.33 MEQ/L
same,CHOLESTEROL,[3],71 mg/dL
same,CREATINE PHOSPHOKINASE,[3],134.67 u/L
same,CREATININE,[3],0.6 mg/dL
same,GLUCOSE,[3],200 mg/dL
same,PHOSPHORUS,[3],13.27 mg/dL
same,POTASSIUM,[3],7.37 MEQ/L
same,SODIUM,[3],149.67 MEQ/L
same,TOTAL BILIRUBIN,[3],0.5 mg/dL
same,TOTAL PROTEIN,[3],6.67 G/DL
same,BASOPHIL,[4],0%
same,EOSINOPHIL,[4],0%
same,ERYTHROCYTE COUNT,[4],6.06 x10E6/uL
same,HEMATOCRIT,[4],36.63%
same,HEMOGLOBIN,[4],14.83 G/DL
same,LEUKOCYTE COUNT,[4],14.27 x10E3/uL
same,LYMPHOCYTE,[4],90.67%
same,MEAN CORPUSCULAR HEMOGLOBIN,[4],24.53 pg
same,MEAN CORPUSCULAR HEMOGLOBIN CONCENTRATION,[4],40.53 G/DL
same,MEAN CORPUSCULAR VOLUME,[4],60.5 fL
same,MONOCYTE,[4],2.33%
same,NEUTROPHIL,[4],7%
same,PLATELET COUNT,[4],1156 x10E3/uL
same,ALANINE AMINOTRANSFERASE,[4],34.67 u/L
same,ALBUMIN,[4],3.8 G/DL
same,ALKALINE PHOSPHATASE,[4],375.67 u/L
same,ASPARTATE AMINOTRANSFERASE,[4],59 u/L
same,BLOOD UREA NITROGEN,[4],14 mg/dL
same,CHLORIDE,[4],103.67 MEQ/L
same,CHOLESTEROL,[4],67.33 mg/dL
same,CREATINE PHOSPHOKINASE,[4],95.67 u/L
same,CREATININE,[4],0.6 mg/dL
same,GLUCOSE,[4],184.67 mg/dL
same,PHOSPHORUS,[4],11.97 mg/dL
same,POTASSIUM,[4],6.8 MEQ/L
same,SODIUM,[4],151.67 MEQ/L
same,TOTAL BILIRUBIN,[4],0.5 mg/dL
same,TOTAL PROTEIN,[4],6.87 G/DL
same,BASOPHIL,[5],0%
same,EOSINOPHIL,[5],0.67%
same,ERYTHROCYTE COUNT,[5],4.74 x10E6/uL
same,HEMATOCRIT,[5],27.07%
same,HEMOGLOBIN,[5],11.3 G/DL
same,LEUKOCYTE COUNT,[5],18.97 x10E3/uL
same,LYMPHOCYTE,[5],64%
same,MEAN CORPUSCULAR HEMOGLOBIN,[5],23.87 pg
same,MEAN CORPUSCULAR HEMOGLOBIN CONCENTRATION,[5],41.93 G/DL
same,MEAN CORPUSCULAR VOLUME,[5],57.07 fL
same,MONOCYTE,[5],1%
same,NEUTROPHIL,[5],34.33%
same,PLATELET COUNT,[5],1411 x10E3/uL
same,ALANINE AMINOTRANSFERASE,[5],107.67 u/L
same,ALBUMIN,[5],3.83 G/DL
same,ALKALINE PHOSPHATASE,[5],223 u/L
same,ASPARTATE AMINOTRANSFERASE,[5],109.33 u/L
same,BLOOD UREA NITROGEN,[5],10.33 mg/dL
same,CHLORIDE,[5],101.67 MEQ/L
same,CHOLESTEROL,[5],67.33 mg/dL
same,CREATINE PHOSPHOKINASE,[5],171 u/L
same,CREATININE,[5],0.63 mg/dL
same,GLUCOSE,[5],206.33 mg/dL
same,PHOSPHORUS,[5],12.3 mg/dL
same,POTASSIUM,[5],6.63 MEQ/L
same,SODIUM,[5],149 MEQ/L
same,TOTAL BILIRUBIN,[5],1.13 mg/dL
same,TOTAL PROTEIN,[5],6.83 G/DL
same,BASOPHIL,[6],0%
same,EOSINOPHIL,[6],0%
same,ERYTHROCYTE COUNT,[6],3.96 x10E6/uL
same,HEMATOCRIT,[6],24.15%
same,HEMOGLOBIN,[6],9.8 G/DL
same,LEUKOCYTE COUNT,[6],13 x10E3/uL
same,LYMPHOCYTE,[6],85.5%
same,MEAN CORPUSCULAR HEMOGLOBIN,[6],24.9 pg
same,MEAN CORPUSCULAR HEMOGLOBIN CONCENTRATION,[6],40.55 G/DL
same,MEAN CORPUSCULAR VOLUME,[6],61.35 fL
same,MONOCYTE,[6],2.5%
same,NEUTROPHIL,[6],12%
same,PLATELET COUNT,[6],1586 x10E3/uL
same,ALANINE AMINOTRANSFERASE,[6],45 u/L
same,ALBUMIN,[6],3.85 G/DL
same,ALKALINE PHOSPHATASE,[6],303 u/L
same,ASPARTATE AMINOTRANSFERASE,[6],67 u/L
same,BLOOD UREA NITROGEN,[6],12 mg/dL
same,CHLORIDE,[6],105 MEQ/L
same,CHOLESTEROL,[6],49.5 mg/dL
same,CREATINE PHOSPHOKINASE,[6],75 u/L
same,CREATININE,[6],0.45 mg/dL
same,GLUCOSE,[6],223.5 mg/dL
same,PHOSPHORUS,[6],12.75 mg/dL
same,POTASSIUM,[6],7.2 MEQ/L
same,SODIUM,[6],148.5 MEQ/L
same,TOTAL BILIRUBIN,[6],0.9 mg/dL
same,TOTAL PROTEIN,[6],7.05 G/DL
